From paper PMC9841576, “Characterisation of C101248: A novel selective THIK-1 channel inhibitor for the modulation of microglial NLRP3-inflammasome” (Neuropharmacology, 2023)

How the values were obtained:
[1] = target: T1, TREK-1 (Homo sapiens, UniProt O95069); test: FLIPR thallium influx assay, HEK-hTREK-1 cells; type: cell-based; settings: HEK-hTREK-1, at 30 μM, compared to TPA controls; read-out: inhibition of constitutive activity
T1 construct: expressed in transfected cells
Experimental: HEK-293 cells were transfected with human THIK-1, TREK-1, TWIK-2, or mouse THIK-1 cDNA cloned into pcDNA3.1, using either Fugene HD transfection reagent (Promega) or electroporation (MaxCyte STX instrument). Cells stably expressing the relevant genes were selected based on resistance to 500 μg/ml geneticin (Gibco). For human THIK-1 and TWIK-2 expressing cells, monoclonal lines were isolated by limited dilution cloning; mouse THIK-1 and human TREK-1 expressing cells were maintained as polyclonal pools. The HEK-293 pools and monoclones stably expressing the relevant genes were maintained in DMEM (Life Technologies), supplemented with 10% FCIII (HyClone, Fetal clone III) and 500 μg/ml geneticin. A CHO-Kv2.1 cell line was purchased from Millipore (accession NM_004975) and maintained in F12 (Life Technologies), supplemented with 10% FCSIII (Thermo Scientific) and 500 μg/ml geneticin (Life Technologies). […]
A fluorescence-based thallium influx assay (Molecular Devices potassium assay kit) was used to monitor channel activity. […] Using a fluorescent imaging plate reader (FLIPR) tetra plate reader, 15 μl thallium stimulus solution was added to the cell plate and the fluorescence signal recorded every second for 1 min (excitation: 470–495 nm, emission: 515–575 nm).

[2] = tested on: NLRP3-dependent release of IL-1β; test: IL-1β release from LPS-primed neonatal microglia exposed to K+-free buffer; type: cell-based, mouse
Experimental: In brief, brains were dissected by removing meninges, cerebellum, and olfactory bulbs before tissue was finely minced with a scalpel then digested with papain solution for 20 min at 37 °C. Tissue was dissociated and the resulting cell suspension was passed through a 40 μm cell strainer (Greiner Bio-One). Cells were centrifuged at 300 g for 5 min then resuspended in culture medium (DMEM, 10% FBS, 1% PenStrep) and plated in T75 collagen-coated flasks (Greiner Bio-One). A full medium change was caried out on day 2 while a half medium was changed on day 5 in the presence of 5 ng/ml of mouse GM-CSF (R&D Systems). Microglia were shaken off between day 9 and 11 and plated onto poly-D-lysine coated 96-well plates (μclear, Greiner Bio-One) at a density of 20,000 cells/well.
IL-1β from culture supernatants was measured with DuoSet ELISA kit (R&D Systems) following the manufacturer instructions.

T1 sequence (O95069 whole entry): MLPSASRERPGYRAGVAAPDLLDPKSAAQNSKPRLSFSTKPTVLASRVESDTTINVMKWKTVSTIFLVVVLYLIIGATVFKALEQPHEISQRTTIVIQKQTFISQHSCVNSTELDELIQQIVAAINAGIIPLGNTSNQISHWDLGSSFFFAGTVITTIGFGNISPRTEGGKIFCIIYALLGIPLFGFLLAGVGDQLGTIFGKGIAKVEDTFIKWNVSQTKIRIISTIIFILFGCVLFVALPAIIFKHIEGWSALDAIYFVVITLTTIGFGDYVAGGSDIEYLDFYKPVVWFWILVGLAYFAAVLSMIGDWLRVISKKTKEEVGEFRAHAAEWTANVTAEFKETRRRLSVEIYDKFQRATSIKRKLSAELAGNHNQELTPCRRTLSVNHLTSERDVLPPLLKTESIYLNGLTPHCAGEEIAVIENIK

With `Nc1nonc1-c1nc2ccccc2n1Cc1ccncc1` [C101248] the inhibition at 30 µM [1] was 18%, the “reduction of IL-1β release” value ([2]; 10 μM, wild type neonatal microglia, K+-free buffer) was ~55% and the IC50 ([2]; Mus musculus, wild-type neonatal microglia, LPS-primed, K+-free buffer, read-out: IC50, inhibition of IL-1β release) was 106 nM. The “effect on K+-free buffer-induced release of IL-1β in THIK-1 KO microglia” value ([2]; THIK-1 KO neonatal microglia, 10 μM) was “no impact”.
